Laboratory results taken from ChEMBL document CHEMBL5584268, “Dactylfungins and Tetralones: Bioactive Metabolites from a Nematode-Associated Laburnicola nematophila” (J Nat Prod, 2024).
≈ marks a conversion by molar mass, not a printed value. Calls of active or inactive are those of the source. The rule behind the calls is not given here.

What was measured:
[1] = test system: Staphylococcus aureus; experiment: Antimicrobial activity against Staphylococcus aureus DSM 346 up to 67 ug/ml measured after 72 hrs by serial dilution assay; format: functional, organism-based; conditions: dose <= 67.0 µg/ml
[2] = test system: Rhodotorula glutinis; experiment: Antimicrobial activity against Rhodotorula glutinis DSM 10134 up to 67 ug/ml measured after 72 hrs by serial dilution assay; format: functional, organism-based; conditions: dose <= 67.0 µg/ml
[3] = test system: L929; experiment: Cytotoxicity against mouse L929 cells by MTT assay; format: toxicity, cell-based
[4] = test system: KB 3-1; experiment: Cytotoxicity against human KB-3-1 cells by MTT assay; format: functional, cell-based
[5] = test system: Caenorhabditis elegans; experiment: Nematicidal activity against Caenorhabditis elegans at 10 to 100 ug/ml incubated for 18 hrs by stereomicroscopic analysis; format: functional, organism-based; conditions: dose 10-100 µg/ml
[6] = test system: Aspergillus fumigatus; experiment: Antimicrobial activity against Aspergillus fumigatus ATCC 204305 measured after 72 hrs by serial dilution assay; format: functional
[7] = test system: Aspergillus fumigatus; experiment: Antimicrobial activity against Aspergillus fumigatus CCF 3522 measured after 48 hrs by serial dilution assay; format: functional
[8] = test system: Aspergillus fumigatus; experiment: Antimicrobial activity against azole-resistant Aspergillus fumigatus CCF 6651 measured after 72 hrs by serial dilution assay; format: functional
[9] = test system: Aspergillus fumigatus; experiment: Antimicrobial activity against azole-resistant Aspergillus fumigatus CCF 6674 measured after 72 hrs by serial dilution assay; format: functional
[10] = test system: Cryptococcus neoformans; experiment: Antimicrobial activity against Cryptococcus neoformans CCF 1081 measured after 48 hrs by serial dilution assay; format: functional
[11] = test system: Mucor plumbeus; experiment: Antimicrobial activity against Mucor plumbeus CCF 2612 measured after 48 hrs by serial dilution assay; format: functional
[12] = test system: Candida albicans; experiment: Antimicrobial activity against Candida albicans CCM 8215 measured after 12 hrs by serial dilution assay; format: functional
[13] = test system: Rhodotorula glutinis; experiment: Antimicrobial activity against Rhodotorula glutinis DSM 10134 measured after 72 hrs by serial dilution assay; format: functional
[14] = test system: Staphylococcus aureus; experiment: Antimicrobial activity against Staphylococcus aureus DSM 346 measured after 72 hrs by serial dilution assay; format: functional
[15] = test system: Candida albicans; experiment: Antimicrobial activity against Candida albicans CCM 8215 up to 67 ug/ml measured after 12 hrs by serial dilution assay; format: functional, organism-based; conditions: dose <= 67.0 µg/ml
[16] = test system: Mucor plumbeus; experiment: Antimicrobial activity against Mucor plumbeus CCF 2612 up to 67 ug/ml measured after 48 hrs by serial dilution assay; format: functional, organism-based; conditions: dose <= 67.0 µg/ml
[17] = test system: Aspergillus fumigatus; experiment: Antimicrobial activity against azole-resistant Aspergillus fumigatus CCF 6651 up to 67 ug/ml measured after 72 hrs by serial dilution assay; format: functional, organism-based; conditions: dose <= 67.0 µg/ml
[18] = test system: Cryptococcus neoformans; experiment: Antimicrobial activity against Cryptococcus neoformans CCF 1081 up to 67 ug/ml measured after 48 hrs by serial dilution assay; format: functional, organism-based; conditions: dose <= 67.0 µg/ml

Compound | Activity [1] | Activity [2] | Activity [3] | Activity [4] | Activity [5] | MIC [6] | MIC [8] | MIC [9] | MIC [10] | also measured
COc1cc2c(c(O)c1Cc1c(O)c(O)c3cc(C)oc(=O)c3c1O)C(=O)CC[C@H]2O | inactive | inactive | Toxic | Active | inactive |  |  |  |  | 
C[C@@H]1[C@H](O)[C@@H](C)/C=C/C=C/C=C/C=C/C=C/C=C/C=C/[C@H](O[C@@H]2O[C@H](C)[C@@H](O)[C@H](N)[C@@H]2O)C[C@@H]2O[C@](O)(C[C@@H](O)C[C@@H](O)[C@H](O)CC[C@@H](O)C[C@@H](O)CC(=O)O[C@H]1C)C[C@H](O)[C@H]2C(=O)O [AMPHOTERICIN B] |  |  |  |  |  | 0.31 µg/mL (≈ 0.335 µM) | 0.16 µg/mL (≈ 0.173 µM) | 2.5 µg/mL (≈ 2.71 µM) | 2.5 µg/mL (≈ 2.71 µM) | MIC [7]: 0.31 µg/mL (≈ 0.335 µM); MIC [11]: 0.31 µg/mL (≈ 0.335 µM)
CC[C@H](C)C[C@@H](C)/C=C(C)/C=C/C[C@H](C)[C@H](O)[C@@H](C)/C=C(C)/C=C/[C@H](O)[C@@H](C)c1cc(O)c([C@H]2O[C@@H](CO)C[C@@H](O)[C@@H]2O)c(=O)o1 |  |  |  |  |  | 8.32 µg/mL (≈ 12.9 µM) | 0.52 µg/mL (≈ 0.804 µM) | 0.52 µg/mL (≈ 0.804 µM) | 4.15 µg/mL (≈ 6.42 µM) | MIC [12]: 8.3 µg/mL (≈ 12.8 µM); MIC [11]: 1.04 µg/mL (≈ 1.61 µM)
COc1cc2c(c(O)c1CO)C(=O)CC[C@H]2O | inactive | inactive | Non-Toxic | inactive | inactive |  |  |  |  | 
NYSTATIN |  |  |  |  |  |  |  |  |  | MIC [13]: 4.2 µg/mL
GENTAMICIN |  |  |  |  |  |  |  |  |  | MIC [14]: 0.21 µg/mL
CC[C@H](C)C[C@@H](C)/C=C(C)/C=C/C[C@H](C)[C@H](O)[C@@H](C)/C=C(C)/C=C/[C@H](O)C(C)(C)c1cc(O)c([C@H]2O[C@@H](CO)C[C@@H](O)[C@@H]2O)c(=O)o1 |  |  |  |  | inactive | 0.52 µg/mL (≈ 0.787 µM) | 2.08 µg/mL (≈ 3.15 µM) | 0.52 µg/mL (≈ 0.787 µM) | 4.15 µg/mL (≈ 6.28 µM) | MIC [14]: 66.6 µg/mL (≈ 101 µM); MIC [7]: 0.52 µg/mL (≈ 0.787 µM); MIC [13]: 8.3 µg/mL (≈ 12.6 µM); Activity [15]: inactive; Activity [16]: inactive
CC[C@H](C)[C@H](O)[C@@H](C)/C=C(C)/C=C/C[C@H](C)[C@H](O)[C@@H](C)/C=C(C)/C=C/[C@H](O)C(C)(C)c1cc(O)c([C@H]2O[C@@H](CO)C[C@@H](O)[C@@H]2O)c(=O)o1 | inactive | inactive |  |  | inactive | 0.26 µg/mL (≈ 0.384 µM) |  | 16.6 µg/mL (≈ 24.5 µM) |  | Activity [17]: inactive; Activity [15]: inactive; Activity [18]: inactive; Activity [16]: inactive
COc1cc2c(c(O)c1/C=C/C(C)=O)C(=O)CC[C@H]2O | inactive | inactive | Toxic | Active | inactive |  |  |  |  | 
